According to US20250129069A1, “TRIAZOLO WRN INHIBITORS” (Nimbus Wadjet, Inc., priority 2023, published 2025):
Read-outs that look alike come from different tables or passages of the source.

Experiments:
[1] = system: p21 induction in HCT 116 cells; assay: p21 induction in cells (In-Cell Western, p21/GAPDH ratio); format: cell-based; conditions: 24 h compound incubation, read-out: p21_EC50
Procedure, shortened: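 HCT 116 cells treated 24 h at 37° C with 11-point, 2-fold dilutions typically from 10 μM, in duplicate. Fixed cells co-stained for p21 (800 nm) and GAPDH (700 nm) by In-Cell Western. p21/GAPDH ratio normalised between DMSO and reference WRN inhibitor controls, and EC50 obtained by nonlinear regression.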

[2] = target: human Werner helicase (WRN, amino acids 517-1235 with L1074F point mutation) (Homo sapiens (Human), UniProt Q14191, L1074F); assay: WRN (BV08) ADP-Glo assay; format: biochemical; conditions: human WRN (aa 517-1235, L1074F), read-out: ADP-Glo_hWRN_IC50
Chain of human Werner helicase (WRN, amino acids 517-1235 with L1074F point mutation) (Q14191 other isoform, or with tags, fused parts or gaps L1074F (already in the parent)): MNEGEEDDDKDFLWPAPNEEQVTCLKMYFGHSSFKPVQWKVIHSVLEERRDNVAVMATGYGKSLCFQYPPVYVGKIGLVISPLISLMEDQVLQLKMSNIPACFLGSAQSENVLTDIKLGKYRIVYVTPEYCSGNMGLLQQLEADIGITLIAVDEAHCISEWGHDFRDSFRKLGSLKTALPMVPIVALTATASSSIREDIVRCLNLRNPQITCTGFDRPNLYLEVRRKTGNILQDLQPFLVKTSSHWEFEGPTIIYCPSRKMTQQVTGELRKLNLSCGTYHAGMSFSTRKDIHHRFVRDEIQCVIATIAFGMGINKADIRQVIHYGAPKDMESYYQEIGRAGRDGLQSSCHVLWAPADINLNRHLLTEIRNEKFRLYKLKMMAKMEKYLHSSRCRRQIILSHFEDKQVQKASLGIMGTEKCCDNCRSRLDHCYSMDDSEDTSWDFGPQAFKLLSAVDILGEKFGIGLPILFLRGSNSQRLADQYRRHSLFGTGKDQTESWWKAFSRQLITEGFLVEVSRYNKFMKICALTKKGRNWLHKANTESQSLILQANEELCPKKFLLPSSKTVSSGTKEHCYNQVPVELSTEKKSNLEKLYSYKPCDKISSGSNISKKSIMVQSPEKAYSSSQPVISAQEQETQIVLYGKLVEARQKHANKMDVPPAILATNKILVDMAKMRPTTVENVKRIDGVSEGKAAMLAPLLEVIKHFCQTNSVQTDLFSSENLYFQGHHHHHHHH
Procedure, shortened: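 Untagged WRN 517-1235 (L1074F), Sf9/baculovirus-expressed, 0.15 nM, preincubated 15 min with compound, then 5 μM ATP and 0.1 nM annealed DNA duplex added; 60 min at 25 °C in Bicine pH 7.5, 1 mM MgCl2, 1% DMSO. ADP-Glo luminescence; % inhibition vs DMSO and 20 μM NSC-617145 controls, four-parameter IC50 fit.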

Structure (SMILES)	EC50 ([1]; Homo sapiens)	IC50 [2]	EC50 [1]
CCc1c(N2CCN(C(=O)c3ncnc(C)c3O)[C@H]3CC[C@@H]32)c(=O)c2nn(-c3ccnc(OC)c3)nc2n1CC(=O)NC12CC(OC(F)(F)F)(C1)C2 [Compound I-29, 2-(5-ethyl-6-((1S,6S)-5-(5-hydroxy-6-methylpyrimidine-4-carbonyl)-2,5-diazabicyclo[4.2.0]octan-2-yl)-2-(2-methoxypyridin-4-yl)-7-oxo-2,7-dihydro-4H-[1,2,3]triazolo[4,5-b]pyridin-4-yl)-N-(3-(trifluoromethoxy)bicyclo[1.1.1]pentan-1-yl)acetamide]	≤ 0.5 µM	0.005 to 0.05 µM	
CCc1c(N2CCN(C(=O)c3ncnc(C)c3O)[C@@H]3CCC[C@@H]32)c(=O)c2nn(-c3ccnc(OC)c3)nc2n1CC(=O)NC12CC(C(C)C)(C1)C2 (relative stereo) [Compound I-77, rel-2-{6-[(4aR,7aS)-4-(5-hydroxy-6-methylpyrimidine-4-carbonyl)-octahydro-1H-cyclopenta[b]pyrazin-1-yl]-5-ethyl-2-(2-methoxypyridin-4-yl)-7-oxo-2H,4H,7H-[1,2,3]triazolo[4,5-b]pyridin-4-yl}-N-[3-(propan-2-yl)bicyclo[1.1.1]pentan-1-yl]acetamide]	> 5 µM	> 0.5 µM	
CCc1c(N2CCN(C(=O)c3c(OC)ncc(C)c3O)[C@H]3CC[C@@H]32)c(=O)c2nn(-c3ccnc(OC)c3)nc2n1CC(=O)NC12CC(C(F)(F)F)(C1)C2 [Compound I-117, 2-{5-ethyl-6-[(1S,6S)-5-(4-hydroxy-2-methoxy-5-methylpyridine-3-carbonyl)-2,5-diazabicyclo[4.2.0]octan-2-yl]-2-(2-methoxypyridin-4-yl)-7-oxo-2H,4H,7H-[1,2,3]triazolo[4,5-b]pyridin-4-yl}-N-[3-(trifluoromethyl)bicyclo[1.1.1]pentan-1-yl]acetamide]	≤ 0.5 µM	0.005 to 0.05 µM	
CCc1c(N2CCN(C(=O)c3csnc3OC)[C@H]3CC[C@@H]32)c(=O)c2nn(C3=CCOCC3)nc2n1CC(=O)NC12CC(C(C)C)(C1)C2 [Compound I-175, 2-[2-(3,6-dihydro-2H-pyran-4-yl)-5-ethyl-6-[(1S,6S)-5-(3-methoxy-1,2-thiazole-4-carbonyl)-2,5-diazabicyclo[4.2.0]octan-2-yl]-7-oxo-2H,4H,7H-[1,2,3]triazolo[4,5-b]pyridin-4-yl]-N-[3-(propan-2-yl)bicyclo[1.1.1]pentan-1-yl]acetamide]	≤ 0.5 µM	0.005 to 0.05 µM	
CCc1c(C2=C(C)CN(C(=O)c3ncnc(C)c3O)CC2)c(=O)c2nn(-c3ccnc(OC)c3)nc2n1CC(=O)NC12CC(C(C)C)(C1)C2 [Compound I-78, 2-{5-ethyl-6-[1-(5-hydroxy-6-methylpyrimidine-4-carbonyl)-5-methyl-1,2,3,6-tetrahydropyridin-4-yl]-2-(2-methoxypyridin-4-yl)-7-oxo-2H,4H,7H-[1,2,3]triazolo[4,5-b]pyridin-4-yl}-N-[3-(propan-2-yl)bicyclo[1.1.1]pentan-1-yl]acetamide]	2 to 5 µM	0.005 to 0.05 µM	
CCc1c(N2CCN(C(=O)c3cccnc3OC(F)F)[C@H]3CC[C@@H]32)c(=O)c2nn(C3=CCOCC3)nc2n1CC(=O)NC12CC(C(C)C)(C1)C2 [Compound I-207, 2-{6-[(1S,6S)-5-[2-(difluoromethoxy)pyridine-3-carbonyl]-2,5-diazabicyclo[4.2.0]octan-2-yl]-2-(3,6-dihydro-2H-pyran-4-yl)-5-ethyl-7-oxo-2H,4H,7H-[1,2,3]triazolo[4,5-b]pyridin-4-yl}-N-[3-(propan-2-yl)bicyclo[1.1.1]pentan-1-yl]acetamide]	0.5 to 2 µM	0.005 to 0.05 µM	
CCc1c(N2CCN(C(=O)c3ncnc(C)c3O)[C@H]3CC[C@@H]32)c(=O)c2nn(-c3ccnc(OC)c3)nc2n1CC(=O)NC12CC(C(F)(F)F)(C1)C2 [Compound I-11, 2-(5-ethyl-6-((1S,6S)-5-(5-hydroxy-6-methylpyrimidine-4-carbonyl)-2,5-diazabicyclo[4.2.0]octan-2-yl)-2-(2-methoxypyridin-4-yl)-7-oxo-2,7-dihydro-4H-[1,2,3]triazolo[4,5-b]pyridin-4-yl)-N-(3-(trifluoromethyl)bicyclo[1.1.1]pentan-1-yl)acetamide]	≤ 0.5 µM	0.005 to 0.05 µM	
CCc1c(N2CCN(C(=O)c3ncnc(C)c3O)CC2)c(=O)c2nn(-c3ccncc3)nc2n1CC(=O)NC12CC(C3CCC3)(C1)C2 [Compound I-141, N-{3-cyclobutylbicyclo[1.1.1]pentan-1-yl}-2-{5-ethyl-6-[4-(5-hydroxy-6-methylpyrimidine-4-carbonyl)piperazin-1-yl]-7-oxo-2-(pyridin-4-yl)-2H,4H,7H-[1,2,3]triazolo[4,5-b]pyridin-4-yl}acetamide]	0.5 to 2 µM	0.005 to 0.05 µM	
CCc1c(N2CCN(C(=O)c3cnn(C)c3)[C@H]3CC[C@@H]32)c(=O)c2nn(C3=CCOCC3)nc2n1CC(=O)NC12CC(C(C)C)(C1)C2 [Compound I-206, 2-[2-(3,6-dihydro-2H-pyran-4-yl)-5-ethyl-6-[(1S,6S)-5-(1-methyl-1H-pyrazole-4-carbonyl)-2,5-diazabicyclo[4.2.0]octan-2-yl]-7-oxo-2H,4H,7H-[1,2,3]triazolo[4,5-b]pyridin-4-yl]-N-[3-(propan-2-yl)bicyclo[1.1.1]pentan-1-yl]acetamide]	0.5 to 2 µM	0.005 to 0.05 µM	
CCc1c(N2CCN(C(=O)c3cn(C)nc3OC)[C@H]3CC[C@@H]32)c(=O)c2nn(C3=CCOCC3)nc2n1CC(=O)NC12CC(C(C)C)(C1)C2 [Compound I-209, 2-[2-(3,6-dihydro-2H-pyran-4-yl)-5-ethyl-6-[(1S,6S)-5-(3-methoxy-1-methyl-1H-pyrazole-4-carbonyl)-2,5-diazabicyclo[4.2.0]octan-2-yl]-7-oxo-2H,4H,7H-[1,2,3]triazolo[4,5-b]pyridin-4-yl]-N-[3-(propan-2-yl)bicyclo[1.1.1]pentan-1-yl]acetamide]	0.5 to 2 µM	0.005 to 0.05 µM	
CCc1c(N2CCN(C(=O)c3c(O)ccc4ncoc34)[C@H]3CC[C@@H]32)c(=O)c2nn(-c3ccnc(OC)c3)nc2n1CC(=O)NC12CC(C(F)(F)F)(C1)C2 [Compound I-4, 2-(5-ethyl-6-((1S,6S)-5-(6-hydroxybenzo[d]oxazole-7-carbonyl)-2,5-diazabicyclo[4.2.0]octan-2-yl)-2-(2-methoxypyridin-4-yl)-7-oxo-2,7-dihydro-4H-[1,2,3]triazolo[4,5-b]pyridin-4-yl)-N-(3-(trifluoromethyl)bicyclo[1.1.1]pentan-1-yl)acetamide]		0.005 to 0.05 µM	≤ 0.5 µM
CCc1c(N2CCN(C(=O)c3ncnc(C)c3O)[C@H]3CC[C@@H]32)c(=O)c2nn(-c3ccnc(C)c3)nc2n1CC(=O)Nc1ccc(C(F)(F)F)cc1Cl [Compound I-96, N-[2-chloro-4-(trifluoromethyl)phenyl]-2-{5-ethyl-6-[(1S,6S)-5-(5-hydroxy-6-methylpyrimidine-4-carbonyl)-2,5-diazabicyclo[4.2.0]octan-2-yl]-2-(2-methylpyridin-4-yl)-7-oxo-2H,4H,7H-[1,2,3]triazolo[4,5-b]pyridin-4-yl}acetamide]		≤ 0.005 µM	≤ 0.5 µM
CCc1c(N2CCN(C(=O)c3ccc4cccnc4c3O)[C@H]3CC[C@@H]32)c(=O)c2nn(C3=CCOCC3)nc2n1CC(=O)NC12CC(C(C)C)(C1)C2 [Compound I-159, 2-[2-(3,6-dihydro-2H-pyran-4-yl)-5-ethyl-6-[(1S,6S)-5-(8-hydroxyquinoline-7-carbonyl)-2,5-diazabicyclo[4.2.0]octan-2-yl]-7-oxo-2H,4H,7H-[1,2,3]triazolo[4,5-b]pyridin-4-yl]-N-[3-(propan-2-yl)bicyclo[1.1.1]pentan-1-yl]acetamide]	0.5 to 2 µM	0.005 to 0.05 µM	
CCc1c(N2CCN(C(=O)c3ncnc(C)c3O)[C@H]3CC[C@@H]32)c(=O)c2nn(-c3ccnc(OC)c3)nc2n1CC(=O)NC12CC(OC(F)(F)F)(C1)C2 [Compound I-40, 2-{5-ethyl-6-[(1S,6S)-5-(5-hydroxy-6-methylpyrimidine-4-carbonyl)-2,5-diazabicyclo[4.2.0]octan-2-yl]-2-(2-methoxypyridin-4-yl)-7-oxo-2H,4H,7H-[1,2,3]triazolo[4,5-b]pyridin-4-yl}-N-[3-(trifluoromethoxy)bicyclo[1.1.1]pentan-1-yl]acetamide]		0.005 to 0.05 µM	≤ 0.5 µM
CCc1c(N2CCN(C(=O)c3c(OC)ncc(C)c3O)[C@H]3CC[C@@H]32)c(=O)c2nn(-c3ccnc(OC)c3)nc2n1CC(=O)NC12CC(C(C)C)(C1)C2 [Compound I-17, 2-(5-ethyl-6-((1S,6S)-5-(4-hydroxy-2-methoxy-5-methylnicotinoyl)-2,5-diazabicyclo[4.2.0]octan-2-yl)-2-(2-methoxypyridin-4-yl)-7-oxo-2,7-dihydro-4H-[1,2,3]triazolo[4,5-b]pyridin-4-yl)-N-(3-isopropylbicyclo[1.1.1]pentan-1-yl)acetamide]		0.005 to 0.05 µM	≤ 0.5 µM
CCc1c(N2CCN(C(=O)c3c(OC)ncc(C)c3O)CC2)c(=O)c2nn(-c3ccnc(OC)c3)nc2n1CC(=O)NC1CC2(CCC(F)(F)CC2)C1 [Compound I-106, N-{7,7-difluorospiro[3.5]nonan-2-yl}-2-{5-ethyl-6-[4-(4-hydroxy-2-methoxy-5-methylpyridine-3-carbonyl)piperazin-1-yl]-2-(2-methoxypyridin-4-yl)-7-oxo-2H,4H,7H-[1,2,3]triazolo[4,5-b]pyridin-4-yl}acetamide]	> 5 µM	0.005 to 0.05 µM	
